Source: patent publication US20230346670A1, “Prebiotic Oral Care Compositions and Methods” (Colgate-Palmolive Company, priority 2020, published 2023)

Tests used:
Type in all cases: cell-based
multi-species biofilms = assay: Organic acid levels in supernatant of multi-species biofilms (ion chromatography); conditions: >0 production, <0 consumption, n = 3
In short: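 Biofilms grown 24 h on calcium-deficient hydroxyapatite disks (Amsterdam Active Adhesion model, 37° C., microaerophilic), then rinsed in substrate solution 3 min, three times daily for 3 days; PBS pH 5.7 without substrate as negative control. Organic acids in filter-sterilized supernatant quantified by ion chromatography.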

[1] = system: human oral keratinocytes (HOK-18A); assay: Inflammatory mediator gene expression in keratinocytes exposed to substrate-treated biofilms (SYBR RT-qPCR); conditions: relative to control, n = 3
In short: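 HOK-18A keratinocytes were exposed to multi-species biofilms treated with substrates dissolved in PBS at 1 M or 1% (w/v). Inflammatory mediator expression was measured by SYBR RT-qPCR against β-actin, with fold change versus control by 2^-ΔΔCt, reported as geometric mean (n = 3).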

[2] = system: P. intermedia virulence genes; assay: Virulence gene expression in multi-species biofilm (SYBR RT-qPCR); conditions: for fold change in DnaJ expression, geometric mean (95% C.I.) / fold change in DnaK expression, geometric mean (95% C.I.) / fold change in ECF expression, geometric mean (95% C.I.) / fold change in GroES expression, geometric mean (95% C.I.) / fold change in HtpG expression, geometric mean (95% C.I.) / fold change in KpsD expression, geometric mean (95% C.I.) / fold change in adpc expression, geometric mean (95% C.I.) / fold change in clpB expression, geometric mean (95% C.I.) / fold change in inpA expression, geometric mean (95% C.I.) / fold change in phg expression, geometric mean (95% C.I.): relative to control = 1
In short: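 Multi-species biofilms grown 24 h on CAD-HA disks (37° C., microaerophilic), then rinsed 3×/day for 3 min over 3 days with substrate at 1 M or 1% (w/v) in PBS; PBS pH 5.7 as control. Expression of 33 genes by SYBR RT-qPCR, normalized to housekeeping genes; fold change by 2^-ΔΔCt, geometric mean (95% C.I.), n = 3.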

A. viscosus = assay: Multi-species biofilm composition, absolute abundance (Geq/mL); conditions: repeated rinsing
F. nucleatum = assay: as above; conditions: repeated rinsing
In short: (§1)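 CAD-HA disks, Amsterdam Active Adhesion model; biofilms established 24 h (37° C., 170 rpm, microaerophilic: 6% O2, 7% CO2, 7% H2, 80% N2). Then rinsed 3×/day, 3 min (RT, 250 rpm), 3 days, with substrate at 1 M; PBS (pH 5.7) without substrate as control. Values mean ± SD (n = 3) log(Geq/mL).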

S. mutans = assay: as above; conditions: repeated rinsing
V. parvula = assay: as above; conditions: repeated rinsing
S. sanguinis = assay: as above; conditions: repeated rinsing
In short: as §1

S. salivarius = assay: as above; conditions: repeated rinsing
[3] = substrate 1 M, listed as D-(+)-raffinose
[4] = HOK-18A exposed to biofilms treated with substrate 1% (w/v)
[5] = HOK-18A exposed to biofilms treated with substrate 1 M
[6] = lower part of Table 6d, head prints 1 M (lower part 1%(w/v))
[7] = upper part of Table 6d, substrate 1 M, n = 3

OC[C@H]1O[C@H](OC[C@H]2O[C@H](O[C@]3(CO)O[C@H](CO)[C@@H](O)[C@@H]3O)[C@H](O)[C@@H](O)[C@@H]2O)[C@H](O)[C@@H](O)[C@H]1O [D-raffinose, D-(+)-raffinose]
acetate level in biofilm supernatant, mean ± SD (multi-species biofilms; substrate 1% (w/v)): 380 ± 23 mg/L
butyrate level in biofilm supernatant, mean ± SD (multi-species biofilms; substrate 1% (w/v)): 2003 ± 81 mg/L
formate level in biofilm supernatant, mean ± SD (multi-species biofilms; substrate 1% (w/v)): 3748 ± 197 mg/L
lactate level in biofilm supernatant, mean ± SD (multi-species biofilms; substrate 1% (w/v)): -125 ± 0 mg/L
propionate level in biofilm supernatant, mean ± SD (multi-species biofilms; substrate 1% (w/v)): 2033 ± 48 mg/L
acetate level in biofilm supernatant, mean ± SD (multi-species biofilms; substrate 1 M): 2640 ± 154^∗ mg/L
butyrate level in biofilm supernatant, mean ± SD (multi-species biofilms; substrate 1 M): 154 ± 26^∗ mg/L
formate level in biofilm supernatant, mean ± SD (multi-species biofilms; substrate 1 M): 344 ± 25^∗ mg/L
lactate level in biofilm supernatant, mean ± SD (multi-species biofilms; substrate 1 M): 971 ± 43^∗ mg/L
propionate level in biofilm supernatant, mean ± SD (multi-species biofilms; substrate 1 M): 4178 ± 105^∗ mg/L
acetate level in biofilm supernatant, mean ± SD (multi-species biofilms; [3]): 2640 ± 154 mg/L
butyrate level in biofilm supernatant, mean ± SD (multi-species biofilms; [3]): 154 ± 26 mg/L
lactate level in biofilm supernatant, mean ± SD (multi-species biofilms; [3]): 971 ± 43 mg/L
propionate level in biofilm supernatant, mean ± SD (multi-species biofilms; [3]): 4178 ± 105 mg/L
fold change in IL-1β gene expression, geometric mean (C.I.) [1, 4]: 0.93 (0.56-1.55) fold
fold change in IL-6 gene expression, geometric mean (C.I.) [1, 4]: 0.70 (0.44-1.13)^∗ fold
fold change in IL-8 gene expression, geometric mean (C.I.) [1, 4]: 1.08 (0.73-1.59) fold
fold change in MMP-8 gene expression, geometric mean (C.I.) [1, 4]: 0.71 (0.38-1.35) fold
fold change in TNF-α gene expression, geometric mean (C.I.) [1, 4]: 0.77 (0.55-1.08) fold
fold change in IL-1β gene expression, geometric mean (C.I.) [1, 5]: 0.8 (0.44-1.46) fold
fold change in IL-6 gene expression, geometric mean (C.I.) [1, 5]: 0.54 (0.17-1.72) fold
fold change in IL-8 gene expression, geometric mean (C.I.) [1, 5]: 0.10 (0.04-0.29)^∗ fold
fold change in MMP-8 gene expression, geometric mean (C.I.) [1, 5]: 0.85 (0.61-1.19) fold
fold change in TNF-α gene expression, geometric mean (C.I.) [1, 5]: 0.66 (0.56-0.78)^∗ fold
fold change in DnaJ expression, geometric mean (95% C.I.) [2, 6]: 1.56 (0.59-4.12) fold
fold change in DnaK expression, geometric mean (95% C.I.) [2, 6]: 1.76 (0.61-5.06) fold
fold change in ECF expression, geometric mean (95% C.I.) [2, 6]: 0.96 (0.56-1.64) fold
fold change in GroES expression, geometric mean (95% C.I.) [2, 6]: 0.98 (0.24-4.05) fold
fold change in HtpG expression, geometric mean (95% C.I.) [2, 6]: 0.67 (0.43-1.04) fold
fold change in KpsD expression, geometric mean (95% C.I.) [2, 6]: 0.90 (0.58-1.40) fold
fold change in adpc expression, geometric mean (95% C.I.) [2, 6]: 0.85 (0.23-3.13) fold
fold change in clpB expression, geometric mean (95% C.I.) [2, 6]: 1.13 (0.86-1.48) fold
fold change in inpA expression, geometric mean (95% C.I.) [2, 6]: 0.98 (0.64-1.52) fold
fold change in phg expression, geometric mean (95% C.I.) [2, 6]: 0.73 (0.33-1.63) fold
impact on P. intermedia virulence gene expression ([2]; substrate 1% (w/v)): limited impact
downregulation of P. intermedia virulence gene expression ([2]; substrate 1 M): 3 fold
fold change in DnaJ expression, geometric mean (95% C.I.) [2, 7]: 1.76 (0.92-3.37) fold
fold change in DnaK expression, geometric mean (95% C.I.) [2, 7]: 10.07 (6.81-14.89)^∗ fold
fold change in ECF expression, geometric mean (95% C.I.) [2, 7]: 6.74 (1.96-23.20)^∗ fold
fold change in GroES expression, geometric mean (95% C.I.) [2, 7]: 10.59 (4.96-22.60)^∗ fold
fold change in HtpG expression, geometric mean (95% C.I.) [2, 7]: 1.90 (0.99-3.67)^∗ fold
fold change in KpsD expression, geometric mean (95% C.I.) [2, 7]: 1.78 (0.71-4.45) fold
fold change in adpc expression, geometric mean (95% C.I.) [2, 7]: 1.02 (0.40-2.60) fold
fold change in clpB expression, geometric mean (95% C.I.) [2, 7]: 2.21 (1.53-3.21) fold
fold change in inpA expression, geometric mean (95% C.I.) [2, 7]: 1.39 (0.67-2.90) fold
fold change in phg expression, geometric mean (95% C.I.) [2, 7]: 0.33 (0.21-0.50)^∗ fold
absolute abundance of A. viscosus (Av), mean ± SD log (Geq/mL) (A. viscosus; substrate 1% (w/v)): 7.77 ± 0.14 log (Geq/mL)
absolute abundance of A. viscosus (Av), mean ± SD log (Geq/mL) (A. viscosus; substrate 1 M in PBS, n = 3): 7.08 ± 0.59 log (Geq/mL)
absolute abundance of F. nucleatum (Fn), mean ± SD log (Geq/mL) (F. nucleatum; substrate 1% (w/v)): 9.40 ± 0.10 log (Geq/mL)
absolute abundance of F. nucleatum (Fn), mean ± SD log (Geq/mL) (F. nucleatum; substrate 1 M in PBS, n = 3): 6.73 ± 0.06^∗ log (Geq/mL)
absolute abundance of S. mutans, mean ± SD log (Geq/mL) (S. mutans; substrate 1% (w/v)): 7.46 ± 0.16 log (Geq/mL)
absolute abundance of S. mutans, mean ± SD log (Geq/mL) (S. mutans; substrate 1 M in PBS, n = 3): 8.24 ± 0.17^∗ log (Geq/mL)
absolute abundance of V. parvula (VP), mean ± SD log (Geq/mL) (V. parvula; substrate 1% (w/v)): 9.83 ± 0.09 log (Geq/mL)
absolute abundance of V. parvula (VP), mean ± SD log (Geq/mL) (V. parvula; substrate 1 M in PBS, n = 3): 9.88 ± 0.07 log (Geq/mL)
absolute abundance of S. sanguinis, mean ± SD log (Geq/mL) (S. sanguinis; substrate 1% (w/v)): 8.56 ± 0.11 log (Geq/mL)
absolute abundance of S. sanguinis, mean ± SD log (Geq/mL) (S. sanguinis; substrate 1 M in PBS, n = 3): 6.39 ± 0.51 log (Geq/mL)
absolute abundance of S. salivarius, mean ± SD log (Geq/mL) (S. salivarius; substrate 1% (w/v)): 2.65 ± 0.00 log (Geq/mL)
absolute abundance of S. salivarius, mean ± SD log (Geq/mL) (S. salivarius; substrate 1 M in PBS, n = 3): 6.29 ± 0.21^∗ log (Geq/mL)
